{"source": "ChEMBL document CHEMBL4334471", "about": "“Discovery of 1,8-disubstituted-[1,2,3]triazolo[4,5-c]quinoline derivatives as a new class of Hippo signaling pathway inhibitors” (Bioorg Med Chem Lett, 2019)", "key": {"[1]": {"target": "[Pyruvate dehydrogenase (acetyl-transferring)] kinase isozyme 4, mitochondrial (Homo sapiens) (UniProt Q16654)", "test": "Inhibition of recombinant human full length PDHK4 assessed as residual activity at 10 uM using KKKYHGHSMSDPGVSYRT as substrate incubated for 40 mins in presence of [gamma33P]ATP by scintillation counting based radiometry assay relative to control"}, "[2]": {"target": "Serine/threonine-protein kinase ULK1 (Homo sapiens) (UniProt O75385)", "test": "Inhibition of recombinant human ULK1 (1 to 314 residues) assessed as residual activity at 10 uM using casein as substrate incubated for 40 mins in presence of [gamma33P]ATP by scintillation counting based radiometry assay relative to control"}, "[3]": {"test_system": "CDK18/Cyclin Y (Homo sapiens), Q07002+Q8ND76 [T166M]", "test": "Inhibition of recombinant full length human CDK18/cyclinY T166M mutant assessed as residual activity at 10 uM using YRRAAVPPSPSLS as substrate incubated for 40 mins in presence of [gamma-33ATP] by scintillation counting based radiometry assay relative to control", "type": "protein-complex assay"}, "[4]": {"test_system": "Hepatocyte growth factor receptor (Homo sapiens), P08581 [Y1230C]", "test": "Inhibition of recombinant human MET A1209G/V1290L/Y1248C mutant (974 to end residues) assessed as residual activity at 10 uM using KKKGQEEEYVFIE as substrate incubated for 40 mins in presence of [gamma-33ATP by scintillation counting based radiometry assay relative to control"}, "[5]": {"target": "Serine/threonine-protein kinase MRCK beta (Homo sapiens) (UniProt Q9Y5S2)", "test": "Inhibition of recombinant human MRCKbeta (1 to 473 residues) assessed as residual activity at 10 uM using KKRNRTLTV as substrate incubated for 40 mins in presence of [gamma-33ATP by scintillation counting based radiometry assay relative to control"}, "[6]": {"target": "Serine/threonine-protein kinase D2 (Homo sapiens) (UniProt Q9BZL6)", "test": "Inhibition of recombinant full-length human PKD2 assessed as residual activity at 10 uM using KKLNRTLSVA as substrate incubated for 40 mins in presence of [gamma33P]ATP by scintillation counting based radiometry assay relative to control"}, "[7]": {"target": "Dual specificity tyrosine-phosphorylation-regulated kinase 1A (Homo sapiens) (UniProt Q13627)", "test": "Inhibition of recombinant human DYRK1A assessed as residual activity at 10 uM using RRRFRPASPLRGPP as substrate at 40 mins in presence of [gamma-33ATP] by scintillation counting based radiometry assay relative to control"}, "[8]": {"test_system": "Ribosomal protein S6 kinase alpha-1 (Rattus norvegicus), Q63531 [S637N,G697A]", "test": "Inhibition of recombinant full length rat Rsk1 S637N/G697A mutant assessed as residual activity at 10 uM using KKKNRTLSVA as substrate incubated for 40 mins in presence of [gamma33P]ATP by scintillation counting based radiometry assay relative to control"}, "[9]": {"target": "Interleukin-1 receptor-associated kinase 1 (Homo sapiens) (UniProt P51617)", "test": "Inhibition of human IRAK1 (194 to end residues) assessed as residual activity at 10 uM using myelin basic protein as substrate after 40 mins by [gamma-33ATP] radiometric assay relative to control"}, "[10]": {"target": "Mitogen-activated protein kinase 1 (Homo sapiens) (UniProt P28482)", "sequence (P28482 whole entry)": "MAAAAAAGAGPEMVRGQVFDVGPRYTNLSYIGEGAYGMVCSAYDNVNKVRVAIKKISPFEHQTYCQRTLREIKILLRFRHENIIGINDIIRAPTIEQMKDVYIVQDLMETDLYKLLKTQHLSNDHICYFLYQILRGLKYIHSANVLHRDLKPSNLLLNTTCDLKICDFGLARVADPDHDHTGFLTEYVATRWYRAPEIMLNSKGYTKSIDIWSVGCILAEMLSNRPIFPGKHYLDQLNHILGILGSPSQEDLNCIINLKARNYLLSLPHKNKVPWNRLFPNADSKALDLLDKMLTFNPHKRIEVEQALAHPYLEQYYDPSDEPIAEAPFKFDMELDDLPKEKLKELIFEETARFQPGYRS", "test": "Inhibition of recombinant full length human MAPK1 assessed as residual activity at 10 uM using myelin basic protein as substrate incubated for 40 mins in presence of [gamma-33ATP by scintillation counting based radiometry assay relative to control"}, "[11]": {"target": "Phosphatidylinositol 4-phosphate 5-kinase type-1 alpha (Homo sapiens) (UniProt Q99755)", "test": "Inhibition of recombinant full-length human PIP5K1alpha assessed as residual activity at 10 uM using phosphatidylinositol 5-phosphate as substrate by HTRF assay relative to control"}, "[12]": {"test_system": "TGF-beta receptor type-1 (Homo sapiens), P36897 [T204D]", "test": "Inhibition of recombinant human TGFBR1 T204D mutant (200 to end residues) assessed as residual activity at 10 uM using casein as substrate incubated for 40 mins in presence of [gamma33P]ATP by scintillation counting based radiometry assay relative to control"}, "[13]": {"target": "Non-receptor tyrosine-protein kinase TYK2 (Homo sapiens) (UniProt P29597)", "test": "Inhibition of recombinant human TYK2 (875 to end residues) assessed as residual activity at 10 uM using GGMEDIYFEFMGGKKK as substrate incubated for 40 mins in presence of [gamma33P]ATP by scintillation counting based radiometry assay relative to control"}, "[14]": {"target": "Mitogen-activated protein kinase kinase kinase kinase 2 (Homo sapiens) (UniProt Q12851)", "test": "Inhibition of recombinant human GCK (1 to 473 residues) assessed as residual activity at 10 uM using myelin basic protein as substrate at 40 mins in presence of [gamma-33ATP] by scintillation counting based radiometry assay relative to control"}, "[15]": {"target": "Ephrin type-B receptor 3 (Homo sapiens) (UniProt P54753)", "test": "Inhibition of recombinant human EphB3 (599 to 920 residues) assessed as residual activity at 10 uM using poly(Glu, Tyr) 4:1 as substrate at 40 mins in presence of [gamma-33ATP] by scintillation counting based radiometry assay relative to control"}, "[16]": {"target": "Serine/threonine-protein kinase tousled-like 2 (Homo sapiens) (UniProt Q86UE8)", "sequence (Q86UE8 whole entry, looked up)": "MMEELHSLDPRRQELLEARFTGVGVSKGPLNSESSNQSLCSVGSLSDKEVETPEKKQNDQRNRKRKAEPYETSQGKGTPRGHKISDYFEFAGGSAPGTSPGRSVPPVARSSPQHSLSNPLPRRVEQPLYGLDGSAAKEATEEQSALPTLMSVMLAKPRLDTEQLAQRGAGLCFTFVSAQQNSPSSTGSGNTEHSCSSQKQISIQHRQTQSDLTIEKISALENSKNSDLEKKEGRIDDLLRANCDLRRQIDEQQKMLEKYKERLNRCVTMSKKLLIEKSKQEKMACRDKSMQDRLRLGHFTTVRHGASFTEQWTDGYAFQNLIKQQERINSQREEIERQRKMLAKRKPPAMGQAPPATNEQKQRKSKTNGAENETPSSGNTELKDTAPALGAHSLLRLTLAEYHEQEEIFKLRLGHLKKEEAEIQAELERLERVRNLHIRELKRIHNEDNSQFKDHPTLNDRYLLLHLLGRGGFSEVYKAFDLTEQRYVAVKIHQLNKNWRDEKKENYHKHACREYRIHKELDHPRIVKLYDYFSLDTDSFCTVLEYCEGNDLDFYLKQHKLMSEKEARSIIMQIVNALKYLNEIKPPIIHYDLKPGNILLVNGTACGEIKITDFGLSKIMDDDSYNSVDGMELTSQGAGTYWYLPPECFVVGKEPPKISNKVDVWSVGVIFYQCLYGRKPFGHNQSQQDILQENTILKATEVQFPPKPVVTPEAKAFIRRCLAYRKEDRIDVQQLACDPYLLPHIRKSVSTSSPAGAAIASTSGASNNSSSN", "test": "Inhibition of recombinant human TLK2 (387 to end residues) assessed as residual activity at 10 uM using casein as substrate incubated for 40 mins in presence of [gamma33P]ATP by scintillation counting based radiometry assay relative to control"}, "[17]": {"target": "Serine/threonine-protein kinase WNK3 (Homo sapiens) (UniProt Q9BYP7)", "sequence (Q9BYP7 whole entry, the tested form may be a part)": "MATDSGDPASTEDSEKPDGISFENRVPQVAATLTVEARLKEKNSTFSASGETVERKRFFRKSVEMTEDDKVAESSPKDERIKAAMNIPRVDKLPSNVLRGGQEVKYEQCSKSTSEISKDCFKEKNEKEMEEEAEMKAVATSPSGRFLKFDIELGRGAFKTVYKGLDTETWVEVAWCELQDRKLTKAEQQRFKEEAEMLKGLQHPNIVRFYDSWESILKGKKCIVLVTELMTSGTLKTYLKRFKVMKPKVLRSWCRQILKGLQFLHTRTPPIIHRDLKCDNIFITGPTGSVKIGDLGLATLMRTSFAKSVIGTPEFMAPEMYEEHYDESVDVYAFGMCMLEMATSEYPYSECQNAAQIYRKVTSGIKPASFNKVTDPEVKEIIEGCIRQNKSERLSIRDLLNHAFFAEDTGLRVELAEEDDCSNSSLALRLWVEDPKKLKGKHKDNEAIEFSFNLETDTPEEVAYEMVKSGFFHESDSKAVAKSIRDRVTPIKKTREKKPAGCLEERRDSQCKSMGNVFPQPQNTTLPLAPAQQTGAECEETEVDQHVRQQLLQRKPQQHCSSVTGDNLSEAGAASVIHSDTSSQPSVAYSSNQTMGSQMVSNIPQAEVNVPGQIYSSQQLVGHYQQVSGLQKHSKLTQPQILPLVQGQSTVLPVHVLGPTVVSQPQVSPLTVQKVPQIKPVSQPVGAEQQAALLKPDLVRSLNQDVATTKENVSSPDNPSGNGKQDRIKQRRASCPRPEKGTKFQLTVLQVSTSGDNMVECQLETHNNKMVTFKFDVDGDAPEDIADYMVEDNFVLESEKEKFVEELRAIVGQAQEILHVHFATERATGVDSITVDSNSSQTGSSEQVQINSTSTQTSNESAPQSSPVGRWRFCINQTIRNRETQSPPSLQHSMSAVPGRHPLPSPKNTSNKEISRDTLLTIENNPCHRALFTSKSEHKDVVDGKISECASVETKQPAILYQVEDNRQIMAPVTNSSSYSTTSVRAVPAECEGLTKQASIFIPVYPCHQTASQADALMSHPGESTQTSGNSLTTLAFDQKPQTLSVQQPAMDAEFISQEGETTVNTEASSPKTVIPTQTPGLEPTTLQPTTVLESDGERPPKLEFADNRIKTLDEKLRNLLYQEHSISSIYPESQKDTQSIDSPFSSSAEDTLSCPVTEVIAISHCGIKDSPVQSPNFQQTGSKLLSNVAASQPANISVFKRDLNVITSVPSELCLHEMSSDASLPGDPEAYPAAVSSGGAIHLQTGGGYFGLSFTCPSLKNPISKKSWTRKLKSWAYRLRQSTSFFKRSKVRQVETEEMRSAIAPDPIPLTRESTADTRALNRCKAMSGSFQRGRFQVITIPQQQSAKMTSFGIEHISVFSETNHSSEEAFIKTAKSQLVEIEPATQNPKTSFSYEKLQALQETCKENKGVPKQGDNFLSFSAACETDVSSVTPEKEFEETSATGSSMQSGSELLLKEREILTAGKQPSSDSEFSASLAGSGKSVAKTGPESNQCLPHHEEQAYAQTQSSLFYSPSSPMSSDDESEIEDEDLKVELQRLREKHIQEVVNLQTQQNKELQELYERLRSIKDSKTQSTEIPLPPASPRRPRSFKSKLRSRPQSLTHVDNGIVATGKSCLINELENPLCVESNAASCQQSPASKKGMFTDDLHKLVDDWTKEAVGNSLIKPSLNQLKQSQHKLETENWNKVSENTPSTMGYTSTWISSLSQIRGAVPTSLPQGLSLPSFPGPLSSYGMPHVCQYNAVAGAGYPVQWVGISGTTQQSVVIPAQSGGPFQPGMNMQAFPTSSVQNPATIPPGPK", "test": "Inhibition of recombinant human WNK3 (1 to 434 residues) assessed as residual activity at 10 uM using myelin basic protein as substrate incubated for 40 mins in presence of [gamma33P]ATP by scintillation counting based radiometry assay relative to control"}, "[18]": {"target": "Calcium/calmodulin-dependent protein kinase type 1G (Homo sapiens) (UniProt Q96NX5)", "test": "Inhibition of recombinant full length human CaMKIgamma assessed as residual activity at 10 uM using KKLRRTLSFAEPG as substrate incubated for 40 mins in presence of [gamma-33ATP] by scintillation counting based radiometry assay relative to control"}, "[19]": {"test_system": "Angiopoietin-1 receptor (Homo sapiens), Q02763 [Q939H,Q940H]", "sequence (Q02763 whole entry Q939H/Q940H)": "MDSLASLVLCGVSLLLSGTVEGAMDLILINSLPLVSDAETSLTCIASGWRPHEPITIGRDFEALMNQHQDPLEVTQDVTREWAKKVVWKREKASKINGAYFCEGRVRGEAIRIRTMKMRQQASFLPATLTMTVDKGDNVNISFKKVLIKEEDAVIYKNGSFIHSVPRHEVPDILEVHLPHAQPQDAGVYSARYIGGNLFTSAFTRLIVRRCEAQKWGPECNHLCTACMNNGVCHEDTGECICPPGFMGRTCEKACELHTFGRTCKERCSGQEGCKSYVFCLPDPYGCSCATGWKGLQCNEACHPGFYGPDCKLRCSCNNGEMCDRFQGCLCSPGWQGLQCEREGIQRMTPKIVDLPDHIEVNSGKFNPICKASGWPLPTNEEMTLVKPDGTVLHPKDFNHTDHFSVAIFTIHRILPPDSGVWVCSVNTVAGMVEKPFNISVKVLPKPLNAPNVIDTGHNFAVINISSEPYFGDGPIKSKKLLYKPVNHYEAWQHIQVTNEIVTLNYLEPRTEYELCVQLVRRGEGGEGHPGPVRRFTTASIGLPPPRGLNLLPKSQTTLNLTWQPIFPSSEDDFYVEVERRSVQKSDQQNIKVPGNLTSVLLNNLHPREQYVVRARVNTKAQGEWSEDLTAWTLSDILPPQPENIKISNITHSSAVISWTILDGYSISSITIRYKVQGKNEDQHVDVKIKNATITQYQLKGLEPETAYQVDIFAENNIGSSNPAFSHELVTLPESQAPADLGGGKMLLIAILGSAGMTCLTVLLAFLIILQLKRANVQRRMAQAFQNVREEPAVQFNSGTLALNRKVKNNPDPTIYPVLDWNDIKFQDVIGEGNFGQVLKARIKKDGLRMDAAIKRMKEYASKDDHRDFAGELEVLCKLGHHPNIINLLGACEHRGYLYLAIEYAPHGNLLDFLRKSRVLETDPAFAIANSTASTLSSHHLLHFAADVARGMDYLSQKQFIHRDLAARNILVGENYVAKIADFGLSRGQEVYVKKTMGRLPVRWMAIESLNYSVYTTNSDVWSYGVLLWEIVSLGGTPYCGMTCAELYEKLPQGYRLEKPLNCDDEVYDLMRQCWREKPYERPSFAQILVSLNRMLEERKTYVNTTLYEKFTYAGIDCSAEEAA", "test": "Inhibition of recombinant human TIE2 Q939H/Q940H mutant (771 to end residues) assessed as residual activity at 10 uM using EFPIYDFLPAKKK as substrate incubated for 40 mins in presence of [gamma33P]ATP by scintillation counting based radiometry assay relative to control"}, "[20]": {"target": "Tyrosine-protein kinase FRK (Homo sapiens) (UniProt P42685)", "sequence (P42685 whole entry)": "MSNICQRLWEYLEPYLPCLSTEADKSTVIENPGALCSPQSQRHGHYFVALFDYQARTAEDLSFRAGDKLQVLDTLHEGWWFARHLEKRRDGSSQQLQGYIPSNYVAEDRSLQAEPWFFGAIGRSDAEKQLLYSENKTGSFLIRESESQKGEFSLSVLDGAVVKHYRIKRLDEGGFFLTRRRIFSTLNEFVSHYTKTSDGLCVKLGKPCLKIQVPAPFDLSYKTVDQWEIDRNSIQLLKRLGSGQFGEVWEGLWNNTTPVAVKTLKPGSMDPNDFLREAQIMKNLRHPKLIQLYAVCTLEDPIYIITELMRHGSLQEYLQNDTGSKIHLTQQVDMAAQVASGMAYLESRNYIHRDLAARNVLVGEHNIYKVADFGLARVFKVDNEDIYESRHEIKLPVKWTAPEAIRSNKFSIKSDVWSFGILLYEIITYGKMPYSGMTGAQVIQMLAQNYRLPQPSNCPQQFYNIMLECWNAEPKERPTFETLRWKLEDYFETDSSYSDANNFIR", "test": "Inhibition of recombinant human PTK5 (218 to end residues) assessed as residual activity at 10 uM using GGEEEEYFELVKKKK as substrate incubated for 40 mins in presence of [gamma33P]ATP by scintillation counting based radiometry assay relative to control"}, "[21]": {"target": "Tyrosine-protein kinase HCK (Homo sapiens) (UniProt P08631)", "sequence (P08631 2-526 limits assumed)": "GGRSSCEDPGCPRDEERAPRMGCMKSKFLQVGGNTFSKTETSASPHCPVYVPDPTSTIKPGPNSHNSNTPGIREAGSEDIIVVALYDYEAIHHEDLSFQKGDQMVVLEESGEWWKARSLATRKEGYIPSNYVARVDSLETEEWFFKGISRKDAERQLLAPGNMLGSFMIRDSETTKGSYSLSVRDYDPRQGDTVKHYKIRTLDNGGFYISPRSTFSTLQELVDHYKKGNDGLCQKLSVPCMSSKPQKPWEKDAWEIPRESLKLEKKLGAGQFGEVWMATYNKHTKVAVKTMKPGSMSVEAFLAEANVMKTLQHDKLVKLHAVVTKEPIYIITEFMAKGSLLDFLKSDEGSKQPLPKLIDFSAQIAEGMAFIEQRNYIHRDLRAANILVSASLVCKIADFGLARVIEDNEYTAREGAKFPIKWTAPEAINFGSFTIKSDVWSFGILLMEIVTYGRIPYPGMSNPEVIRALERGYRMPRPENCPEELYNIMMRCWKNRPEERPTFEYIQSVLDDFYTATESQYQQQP", "test": "Inhibition of human HCK (230 to 497 residues) assessed as residual activity at 10 uM using Cdc2 peptide as substrate after 40 mins by [gamma-33ATP] radiometric assay relative to control"}}, "data": [{"smiles": "C[C@@H](c1ccccc1)n1nnc2cnc3ccc(-c4cnc5[nH]ccc5c4)cc3c21", "values": [{"measurement": "Activity", "setting": "[1]", "value": 69, "unit": "%"}, {"measurement": "Activity", "setting": "[2]", "value": 91, "unit": "%"}, {"measurement": "Activity", "setting": "[3]", "value": 94, "unit": "%"}, {"measurement": "Activity", "setting": "[4]", "value": 49, "unit": "%"}, {"measurement": "Activity", "setting": "[5]", "value": 105, "unit": "%"}, {"measurement": "Activity", "setting": "[6]", "value": 65, "unit": "%"}, {"measurement": "Activity", "setting": "[7]", "value": 63, "unit": "%"}, {"measurement": "Activity", "setting": "[8]", "value": 71, "unit": "%"}, {"measurement": "Activity", "setting": "[9]", "value": 84, "unit": "%"}, {"measurement": "Activity", "setting": "[10]", "value": 100, "unit": "%"}, {"measurement": "Activity", "setting": "[11]", "value": "73 to 83", "unit": "%"}, {"measurement": "Activity", "setting": "[12]", "value": 97, "unit": "%"}, {"measurement": "Activity", "setting": "[13]", "value": 60, "unit": "%"}, {"measurement": "Activity", "setting": "[14]", "value": 75, "unit": "%"}, {"measurement": "Activity", "setting": "[15]", "value": 123, "unit": "%"}, {"measurement": "Activity", "setting": "[16]", "value": 106, "unit": "%"}, {"measurement": "Activity", "setting": "[17]", "value": 99, "unit": "%"}, {"measurement": "Activity", "setting": "[18]", "value": 47, "unit": "%"}, {"measurement": "Activity", "setting": "[19]", "value": 50, "unit": "%"}, {"measurement": "Activity", "setting": "[20]", "value": 7, "unit": "%"}, {"measurement": "Activity", "setting": "[21]", "value": 9, "unit": "%"}]}]}
